Laboratory results reported in PubChem BioAssay AID2305 (GlaxoSmithKline (GSK), 2010).

Test system: P. falciparum 3D7 growth, pLDH absorbance
Test: blood-stage malaria parasite growth potency – strain 3D7, dose response (AID 2305)

SMILES | IC50
CCC(=O)N1CCc2cc(Br)cc(S(=O)(=O)N3CC(C)CC(C)C3)c21 (stereo not drawn) | 930 nM
Cc1cc(N[C@@H](Cc2ccccc2)C(=O)NCCOc2ccccc2)nc(NCC2CCCCC2)n1 | 850 nM
Cc1nc(N)nc(N)c1-c1ccc(Cl)cc1 | 770 nM
O=C(c1ccc(OCCn2ccnc2)cc1)N1CCC(c2ccc(Br)cc2)C1 (stereo not drawn) | 120 nM
CCC(Cc1ccccc1)c1cc(O)c(Cc2ccc(-c3ccccc3)cc2)c(=O)o1 (stereo not drawn) | 970 nM
COc1ccc(C(=O)CCC(=O)N(Cc2ccc(-c3ccc(CNCCc4ccc(S(C)(=O)=O)cc4)cn3)cc2)C2CCN(Cc3ccccc3)CC2)cc1F | 440 nM
Cc1cccc(-c2c(C)nc(N)nc2N)c1 | 1150 nM
Cc1cccc2[nH]c(-c3ccc(-c4cccc(NC(=O)Nc5cccc(C#N)c5)c4)cc3)nc12 | 540 nM
O=C(Nc1ccc(Cl)cc1)c1cccc(S(=O)(=O)NC2CCN(CC3CCCCC3)CC2)c1 | 720 nM
CC(=O)c1ccccc1OCCSc1nnc(Cc2cccs2)n1C1CCCCC1 | 920 nM
COc1ccc(-c2ccnc(-c3cccc(-c4ccccn4)n3)c2)cc1 | 820 nM
Cc1c(-c2cccc(C(C)(C)NC3CCN(Cc4ccccc4)CC3)c2)cnc(N)c1C | 580 nM
CCN(CC)CCNc1ccnc2[nH]c3ccc(Cl)cc3c12 | 240 nM
O=c1cc(NCCCNCc2cc3ccc(Br)cc3s2)[nH]c2ccccc12 | 990 nM
O=C(NCCN1CCCCC1)c1cccc(Nc2nccc(Nc3ccc(Oc4ccccc4)cc3)n2)c1 | 270 nM
CC(=O)N(C)c1cccc(C(=O)Nc2cccc(-c3cccc(-c4nc5ccc(C(F)(F)F)cc5[nH]4)c3)c2)c1 | 240 nM
CCCCc1cc(NCC)nc(Nc2ccc(F)cc2)n1 | 790 nM
COc1ccccc1CCNc1nc(C)cc(N[C@@H](Cc2ccccc2)C(=O)NCCOc2ccccc2)n1 | 1210 nM
CC(C)NCc1ccc(-c2ccc(CN3CCCC(c4ccccc4)C3)cc2)c(C(=O)NC2Cc3ccccc3C2)c1 (stereo not drawn) | 990 nM
CCCCN(CCCC)CCOc1cc2c(cc1OC)CCN2C(=O)/C=C/c1ccccc1Cl | 1180 nM
Cc1nc(-c2ccc(-c3ccc(C(=O)Nc4ccc5c(c4)C4(CCNCC4)CO5)cc3)c(C)c2)no1 | 860 nM
CNCCCN(C)C(=O)Oc1c(Br)c(C)nc(C)c1-c1ccc(Oc2ccc(OC(F)(F)F)cc2)cc1 | 390 nM
COc1ccc2ncc(F)c([C@@H](O)CN3CCC(NCc4cc(C#N)c5c(c4)CCO5)CC3)c2n1 | 890 nM
Cc1ccc(NC(=O)c2cccc(C#N)c2)cc1-c1ccc(C(=O)Nc2ccncc2)cc1 | 690 nM

SMILES | IC50
O=C(Nc1ccc(C(=O)N(Cc2ccc3c(c2)OCO3)C2CCCC2)cc1)c1cccs1 | 650 nM
Cc1c(S(=O)(=O)Nc2ccc3nccc(N4CCN[C@H](C)C4)c3c2)sc2ccc(Cl)cc12 | 840 nM
CCOC(=O)CNC(=O)N1CCN(C(=O)NCC(=O)OCC)CC1 | 850 nM
O=C(/C=C/c1ccc(Cl)c(Cl)c1)N1CCC(CN2CCC(c3c[nH]c4cnccc34)CC2)CC1 | 220 nM
CCC(ON1C(N)=NC(N)=NC1(C)C)c1ccccc1 (stereo not drawn) | 30 nM
CCCOc1ccc2ccccc2c1CNCCCCCCNCc1c(OCCC)ccc2ccccc12 | 790 nM
CC(C)(C)OC(=O)NCc1ccc(Nc2nnc(-c3ccc(OCC(=O)NCc4ccc(C(C)(C)C)cc4)c([N+](=O)[O-])c3)o2)cc1 | 800 nM
COc1ccc(NC(=O)[C@H](Cc2ccccc2)Nc2cc(C)nc(NCc3ccccc3C)n2)cc1 | 790 nM
O=[N+]([O-])c1cccc(-c2nc3ccc(C4=N[C@H]5CCCC[C@H]5N4)cc3[nH]2)c1 | 200 nM
FC(F)(F)c1ccc2nc(-c3cccc(-c4ccc(CNCC5CCCO5)cc4)c3)[nH]c2c1 (stereo not drawn) | 280 nM
O=C(NCCN1CCCC1)N1CCCN(c2ncnc3cc(-c4ccc(Cl)cc4)sc23)CC1 | 920 nM
O=C(Nc1ccc(-c2ccc(CN3CCNCC3)cc2)cc1)c1cccc(Cl)c1 | 890 nM
O=C(/C=C/c1ccc(Cl)c(Cl)c1)NCCCCCCN1CCCN(C(=O)Nc2cc(Cl)cc(Cl)c2)CC1 | 780 nM
CCN(CC)c1ccc(C(c2ccc(N(CC)CC)cc2)c2cccc([N+](=O)[O-])c2)cc1 | 380 nM
CN(CCC(CCN1CCC(c2c[nH]c3ccccc23)CC1)c1ccccc1)C(=O)Nc1ccc(Cl)c(Cl)c1 (stereo not drawn) | 1190 nM
Fc1ccc2nc(-c3ccc(-c4ccc(CN5CCN(CCN6CCOCC6)CC5)cc4)cc3)[nH]c2c1 | 180 nM
CC[C@H]1CN2CC[C@H]1C[C@H]2[C@H](O)c1cc(N2CCCC(CO)C2)nc2ccc(OC)cc12 (stereo partly drawn) | 80 nM
Cn1nccc1C(=O)NCCNCc1cccc(-c2ccc(-c3nc4ccccc4[nH]3)s2)c1 | 300 nM
Cc1ccc2[nH]c3c(c2c1)CC(C(=O)NCCC(C)C)NC31CCN(Cc2ccccc2)CC1 (stereo not drawn) | 930 nM
N#Cc1cc(C(=O)c2cc(Cl)ccc2O)cn(-c2cc(Cl)cc(Cl)c2)c1=O | 850 nM
CC(C)COc1ccc(Cl)cc1Cc1nc(-c2nc3nc(N4CCN(C)CC4)ccc3[nH]2)cs1 | 750 nM
C[C@H](Cc1ccc(C[C@@H](C)NC[C@H](O)c2cccc(Cl)c2)cc1)NC[C@H](O)COc1ccccc1 | 1170 nM
COc1ccc(NC(=O)c2ccc(-c3nc(-c4ccc(Cl)cc4)cs3)cc2)cc1N1CCN(C)CC1 | 920 nM
COc1ccc2c(NN=Cc3cccc(Cl)c3)ccnc2c1 | 720 nM
